For this experiment, the target named is T1, Aβ42 (amyloid beta) (Homo sapiens, UniProt P05067).
T1 construct: gene APP
The experiment is described as follows: Thioflavin T fibrillization assay with purified Aβ[…] peptide. In kind it is biochemical.

Molecules are shown by their SMILES. Read-outs that look alike come from different tables or passages of the source.

T1 sequence (P05067 672-713 limits assumed): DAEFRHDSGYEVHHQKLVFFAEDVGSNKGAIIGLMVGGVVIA

With `CN1CCN(c2ccc3[nH]c(-c4ccc5[nH]c(-c6ccc(N(C)C)cc6)nc5c4)nc3c2)CC1` [Hoechst 34580], the IC50 (as a rule, the point on the concentration scale where inhibition reaches its midpoint) turned out to be 860 ± 50 nM. In the case of `CCOc1ccc(-c2nc3cc(-c4nc5cc(N6CCN(C)CC6)ccc5[nH]4)ccc3[nH]2)cc1` [Hoechst 33342], the IC50 (read-out: IC50) came out at 680 ± 50 nM.

The values above are taken from PMC5021751, “Discovery of DNA dyes Hoechst 34580 and 33342 as good candidates for inhibiting amyloid beta formation: in silico and in vitro study” (Journal of Computer-Aided Molecular Design, 2016).
